# Laboratory results as given in patent publication US20250326792A1, “A FORMULATION FOR TREATMENT OF PIGMENTARY DISORDERS” (priority 2022, published 2025).
# Legend:
# NHEM cells = assay: Melanin content assay in NHEM cells; format: cell-based, Human; conditions: NHEM CELLS
# Protocol: (§1) Culture and maintenance of cell lines: B16F10 cells were cultured in RPMI containing 10% fetal bovine serum, 100 units per millilitre (U/mL) penicillin, 0.1 mg/mL streptomycin, and 0.25 microgram per millilitre (μg/mL) amphotericin B at 37 degrees Celsius in a humidified 95% air/5% CO2 incubator. Drug treatment was done 24 hours after seeding. Cells were harvested 48 hours later and melanin content and tyrosinase activity determined in triplicate. NHEM cells were cultured in DMEM containing 10% fetal bovine serum, 100 units per milliliter (U/mL) penicillin, 0.1 mg/mL streptomycin, and 0.25 microgram per millilitre (μg/mL) amphotericin B at 37 degrees Celsius in a humidified 95% air/5% CO2 incubator. Drug treatment was done 24 hours after seeding. Cells were harvested 48 hours later and melanin content and tyrosinase activity determined in triplicate.
# (§2) IS103 was dissolved in water for injection or DMSO to prepare stock solution of about 50 mg/ml. The stock solution was used for preparation of subsequent dilutions in solvent to achieve working dilutions for treatment ranging 0.1 μg/ml to 1000 μg/ml.
# (§3) Cells were seeded in a 6-well plate (2×10^4 cells/well) and incubated overnight to allow the cells to adhere. After treating with various test samples for 4 or 5 days, cells were washed with phosphate-buffered saline (PBS), trypsinized, counted, and then lysed in 1 N NaOH at 100° C. for about 1 hour. The melanin content in each sample was calculated by comparison of absorbance at 400 nm of unknown samples with a standard curve obtained using synthetic melanin. IS103 enhances melanin synthesis in a dose dependent manner without significant toxicity. B16F10 and NHEM cells were treated with different concentrations of IS103 ranging from 0.1 to 1000 μg/ml and analysed melanin contents in cells. It was observed that IS103 was able to enhance pigmentation of B16F10 and NHEM cells in a dose-dependent manner (Table 18 and FIGS. 4 and 5). […] To assess the toxicity of the IS103 peptide, cell viability was analyzed by MTT assay.
# B16F10 cells = assay: Melanin content assay in B16F10 cells; format: cell-based; conditions: B16F10 CELLS; 100 μM
# Protocol: as §1, §2
# as §3, with “IS103 enhances melanin synthesis in a dose dependent manner without significant toxicity.” left out, “cells.” for “cells. It was observed that IS103 was able to enhance pigmentation of B16F10 and NHEM cells in a dose-dependent manner (Table 18 and FIGS. 4 and 5).”
# Tyrosinase [1] = assay: Tyrosinase activity assay (L-DOPA) in B16F10 cells; format: cell-based; conditions: for increase in Tyrosinase activity when compared to control: B16F10 cells, positive control
# Protocol: as §1, §2
# (§4) Tyrosinase activity was determined using L-DOPA as a substrate. Briefly, B16F10 and NHEM cells were seeded in a 6-well plate (2×10^4 cells/well) and incubated for overnight. The cells were then treated with or without the test compounds for 46 hours and were washed twice with ice cold PBS and extracted by sonication in 100 μl of 0.1M Tris-HCl buffer (pH 7.2) containing 1% Nonidet P-40, 0.01% SDS, 100 μM phenyl methyl sulfonyl fluoride, and 1 μg/ml aprotinin and then centrifuged at 10,000 g for about 10 minutes at 4° C. The supernatants collected were used for enzyme assay and its protein content was estimated by method of Bradford using BSA as standard. Samples of cell extract supernatant were incubated in duplicate for 1 hour at 37° C. in 1 ml of 0.1M sodium phosphate buffer (pH 7.4) containing 0.1% L-DOPA. The absorbance was then monitored at 450 nm and compared with purified mushroom tyrosinase (Sigma). The standard curve was prepared limiting linearity within the range of experimental value.
# Tyrosinase [2] = assay: Tyrosinase activity assay (L-DOPA) in NHEM cells; format: cell-based, Human; conditions: for increase in Tyrosinase activity when compared to control: NHEM cells, positive control
# Protocol: as §1, §2, §4
# [3] = TYROSINASE ACTIVITY table, B16F10 CELLS, 100 μM
# [4] = TYROSINASE ACTIVITY table, NHEM CELLS, 100 μM
Compound,% increase in melanin content compared to control (NHEM cells; 100 μM) [%],Fold change in melanin content (NHEM cells; 100 μM),% increase in melanin content compared to control (B16F10 cells) [%],Fold change in melanin content (B16F10 cells),increase in Tyrosinase activity when compared to control (Tyrosinase [1]; 100 μM) [%],% increase in tyrosinase activity compared to control (Tyrosinase [1]; [3]) [%],Change in tyrosinase activity (Tyrosinase [1]; [3]),increase in Tyrosinase activity when compared to control (Tyrosinase [2]; 100 μM) [%],% increase in tyrosinase activity compared to control (Tyrosinase [2]; [4]) [%],Tyrosinase activity (Tyrosinase [2]; [4]),% increase in melanin content compared to control (NHEM cells; 100 nM) [%],increase in Tyrosinase activity when compared to control (Tyrosinase [1]; 100 nM) [%],"% increase in tyrosinase activity compared to control (Tyrosinase [1]; TYROSINASE ACTIVITY table, B16F10 CELLS, 100 nM) [%]",increase in Tyrosinase activity when compared to control (Tyrosinase [2]; 100 nM) [%],"% increase in tyrosinase activity compared to control (Tyrosinase [2]; TYROSINASE ACTIVITY table, NHEM CELLS, 100 nM) [%]"
"CC(C)Cn1c(=O)n(C)c(=O)c2[nH]cnc21 [IBMX, 3-isobutyl-1-methylxanthine, reference compound]",160,2.6 ± 0.20,180,2.8 ± 0.20,59,59,74.0 ± 5.10,56,56,70.3 ± 4.20,,,,,
"α-Melanocyte Stimulating Hormone [α-MSH, reference compound]",,,,,,,,,,,190,57.33,57.33,56.33,56.33
